The results in this text go back to ChEMBL document CHEMBL3351305, “Structure-based design of a novel series of azetidine inhibitors of the hepatitis C virus NS3/4A serine protease” (Bioorg Med Chem Lett, 2014).

The target in series [1] is Hepatitis C virus serine protease, NS3/NS4A (Hepatitis C virus, UniProt A3EZI9+D2K2A8). The series is described as follows: Inhibition of full length Hepatitis C virus genotype 1b Con1 NS3/4A by FRET assay. Further details: species or system Hepatitis C virus (isolate Con1).
In the next series the test system is Hepatitis C virus. Nature of the series: Antiviral activity against Hepatitis C virus genotype 1b Con1 infected in human Huh7 cells assessed as inhibition of NS4A expression by ELISA. The class given is functional, cell-based, Hepacivirus hominis. Conditions: genotype 1b Con1, Huh-7. (In general: In an ELISA, binding on a coated surface is turned into a signal by an enzyme label.)

Series [2] in a line: Half life in rat liver microsomes. The class given is ADME.
Series [3] is described as follows: Half life in human liver microsomes. The class given is ADME. (In general: Liver microsomes are vesicles of endoplasmic reticulum, rich in cytochrome P450 enzymes.)
Series [4] is described as follows: Half life in cynomolgus monkey liver microsomes. The class given is ADME, Macaca fascicularis.
Series [5] in a line: Clearance in cynomolgus monkey liver microsomes assessed per mg protein. Conditions: read-out: CLH. It is filed as ADME, Macaca fascicularis.
A short description of series [6]: Clearance in human liver microsomes assessed per mg protein. It is filed as ADME. Conditions: read-out: CLH.
Series [7] in a line: Clearance in rat liver microsomes assessed per mg protein. The settings on record: read-out: CLH. It is filed as ADME.
Series [8] in a line: Selectivity index, ratio of CC50 for human Huh7 cells to EC50 for Hepatitis C virus genotype 1b Con1. It is filed as toxicity, cell-based, Huh-7. Conditions: read-out: Ratio CC50/EC50.
A short description of series [9]: Inhibition of human leukocyte elastase.
Series [10] concerns Hepatitis C virus serine protease, NS3/NS4A (Hepatitis C virus), D2K2A8+A3EZI9 [A156S]. The series is described as follows: Inhibition of Hepatitis C virus genotype 1b Con1 NS3/4A A156S mutant by FRET assay. Conditions: Hepatitis C virus (isolate Con1).

Calls of active or inactive are those of the source. Bounds are passed on as bounds.

Hepatitis C virus serine protease, NS3/NS4A, sequence (D2K2A8 whole entry): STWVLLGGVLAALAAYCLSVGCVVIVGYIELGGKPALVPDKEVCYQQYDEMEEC
Hepatitis C virus serine protease, NS3/NS4A, sequence (A3EZI9 whole entry): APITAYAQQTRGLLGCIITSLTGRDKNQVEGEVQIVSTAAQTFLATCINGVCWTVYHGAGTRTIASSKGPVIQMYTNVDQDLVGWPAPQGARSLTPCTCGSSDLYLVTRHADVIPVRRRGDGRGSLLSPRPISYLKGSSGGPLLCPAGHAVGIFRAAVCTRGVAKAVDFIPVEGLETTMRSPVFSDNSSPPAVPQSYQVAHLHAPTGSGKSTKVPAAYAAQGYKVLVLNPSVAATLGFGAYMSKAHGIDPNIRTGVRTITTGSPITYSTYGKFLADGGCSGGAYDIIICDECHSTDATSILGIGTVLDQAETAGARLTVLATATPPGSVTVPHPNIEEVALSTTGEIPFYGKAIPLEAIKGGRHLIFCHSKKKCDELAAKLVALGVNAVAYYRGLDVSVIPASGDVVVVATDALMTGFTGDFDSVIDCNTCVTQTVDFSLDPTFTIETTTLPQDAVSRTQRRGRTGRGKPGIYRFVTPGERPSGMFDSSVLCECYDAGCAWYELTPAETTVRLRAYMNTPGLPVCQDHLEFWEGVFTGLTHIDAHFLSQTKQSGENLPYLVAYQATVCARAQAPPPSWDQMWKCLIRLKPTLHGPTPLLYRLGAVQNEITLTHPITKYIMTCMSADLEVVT

Usually IC50 stands for the midpoint of a concentration-inhibition curve. As usually defined, the EC50 is the concentration that produces a half-maximal response. Consider `COc1ccc2c(OC[C@@H]3C[C@H]4C(=O)N(C)CCCC/C=C\[C@H]5C[C@]5(C(=O)NS(=O)(=O)C5CC5)NC(=O)N34)cc(-c3nc(C(C)C)cs3)nc2c1Cl`, for which the IC50 in series [1] is less than 1000 nM. Also, in the series on Hepatitis C virus, the EC50 is less than 750 nM.
In general, half-life refers to the time needed for the level to fall by half in the phase considered. For `COc1ccc2c(OC[C@@H]3C[C@H]4C(=O)N(C)CCCC/C=C\[C@H]5C[C@]5(C(=O)NS(=O)(=O)C5(C)CC5)NC(=O)N34)cc(-c3nc(C(C)C)cs3)nc2c1C`, the half-life in [2], in [3] and in series [4] was less than 10 min each time. 6.6 nM corresponded to half-maximal inhibition in series [1] (IC50). In addition, the concentration for a half-maximal effect (EC50) in the series on Hepatitis C virus came to 45 nM. The microsomal CLint in series [5], in [6] and in [7] was greater than 150 µL/min/mg throughout.
As for `COc1ccc2c(OC[C@H]3C[C@@H]4C(=O)N[C@@]5(C(=O)NS(=O)(=O)C6CC6)C[C@@H]5/C=C\CCCCN(C)C(=O)N34)cc(-c3ccccc3)nc2c1`, the midpoint of inhibition in [1], the IC50, lay at 278 nM.
As to `COc1ccc2c(OC[C@@H]3C[C@H]4C(=O)N(C)CCCC/C=C\[C@H]5C[C@]5(C(=O)NS(=O)(=O)C5(C)CC5)NC(=O)N34)cc(-c3nc(C(C)C)cs3)nc2c1Cl`, the half-life in series [2], in series [3] and in series [4] was less than 10 min in each case. The IC50 in series [1] is 2.1 nM. Besides, the EC50 with Hepatitis C virus is 60 nM. In addition, the microsomal CLint in series [5], in [6] and in series [7] was greater than 150 µL/min/mg in each case. In [8], the selectivity ratio was greater than 1500.
Regarding `CCC[C@H](NC(=O)[C@@H]1[C@H]2CCC[C@H]2CN1C(=O)[C@@H](NC(=O)[C@@H](NC(=O)c1cnccn1)C1CCCCC1)C(C)(C)C)C(=O)C(=O)NC1CC1` [TELAPREVIR], in series [9], the IC50 turned out to be 600 nM. The inhibition result in series [10] is “inactive”.
Take `COc1ccc2c(OC[C@@H]3C[C@H]4C(=O)N(C)CCCC/C=C\[C@H]5C[C@]5(C(=O)NS(=O)(=O)C5CC5)NC(=O)N34)cc(-c3ccccc3)nc2c1`: 45 nM corresponded to half-maximal inhibition in [1] (IC50). In the series with Hepatitis C virus, the EC50 turned out to be 1860 nM.
For `COc1ccc2c(OC[C@@H]3C[C@H]4C(=O)N(C)CCCC/C=C\[C@H]5C[C@]5(C(=O)NS(=O)(=O)C5CC5)NC(=O)N34)cc(-c3nc(C(C)C)cs3)nc2c1C` the same measures were less than 1000 nM and less than 750 nM.
As to `COc1ccc2c(OC[C@@H]3C[C@H]4C(=O)N[C@@]5(C(=O)NS(=O)(=O)C6CC6)C[C@@H]5/C=C\CCCCN(C)C(=O)N34)cc(-c3ccccc3)nc2c1`, half-maximal inhibition in [1] (IC50) required 2400 nM.
As to `COc1ccc2c(OC[C@H]3C[C@@H]4C(=O)N(C)CCCC/C=C\[C@H]5C[C@]5(C(=O)NS(=O)(=O)C5CC5)NC(=O)N34)cc(-c3ccccc3)nc2c1`, the IC50 in series [1] was 3.5 nM. In addition, in the series on Hepatitis C virus, the EC50 worked out at 242 nM.
Regarding `COc1ccc2c(O[C@@H]3C[C@H]4C(=O)N[C@]5(C(=O)O)C[C@H]5/C=C\CCCCC[C@H](NC(=O)OC5CCCC5)C(=O)N4C3)cc(-c3csc(NC(C)C)n3)nc2c1` [CILUPREVIR], the IC50 in series [1] amounted to 0.8 nM. Moreover, the EC50 in the series with Hepatitis C virus was 2.8 nM.
Compound `COc1ccc2c(OC[C@@H]3C[C@H]4C(=O)N(C)CCCC/C=C\[C@H]5C[C@]5(C(=O)NS(=O)(=O)C5(C)CC5)NC(=O)N34)cc(-c3nc(C(C)C)cs3)nc2c1F` returned an IC50 in series [1] of 16.8 nM. Also, the EC50 in the series on Hepatitis C virus amounted to 872 nM. For the same compound, the inhibition result in series [10] is “inactive”.
On to `CC(C)(C)NC(=O)N[C@H](C(=O)N1C[C@H]2[C@@H]([C@H]1C(=O)NC(CC1CCC1)C(=O)C(N)=O)C2(C)C)C(C)(C)C` (some centres not stated), for which the inhibition result in series [10] is “inactive”.
In turn, `COc1ccc2c(OC[C@@H]3C[C@H]4C(=O)N(C)CCCC/C=C\[C@H]5C[C@]5(C(=O)NS(=O)(=O)C5(C)CC5)NC(=O)N34)cc(-c3nc(C(C)C)cs3)nc2c1` displayed an IC50 in series [1] of 1.3 nM. Further, the EC50 in the series with Hepatitis C virus turned out to be 412 nM.
